{"source": "patent US20180354909A1", "about": "“SUBSTITUTED BENZIMIDAZOLIUM, PYRIDO-IMIDAZOLIUM, OR PYRAZINO-IMIDAZOLIUM COMPOUNDS AS CHEMOTHERAPEUTICS” (The Board of Regents of the University of Texas System, priority 2015, published 2018)", "key": {"[1]": {"test": "In vitro plasma half-life", "assay_type": "in vitro ADME", "conditions": "mouse, plasma, murine plasma, read-out: Plasma T1/2 (converted)", "protocol": "12M11 (2 μM final concentration) was incubated with murine plasma and saline for 0-1440 minutes. Reactions were quenched with 200 μl (1:2) of methanol containing 0.1% formic acid and 200 ng/ml IS (IS final conc.=100 ng/mL). Samples were vortexed for 15 seconds, incubated at RT for 10 minutes and spun for 5 minutes at 13.2K rpm. Supernatant ([…]) was then transferred to an eppendorf tube and spun in a table top, chilled centrifuge for 5 minutes at 13.2K rpm. Supernatant (800 μL) was transferred to an HPLC vial (w/out insert). Analyzed by Qtrap 3200 mass spectrometer. These methods were used data obtained in the FIGS. 22C and 22F."}, "[2]": {"test": "In vivo plasma PK, 10 mg/kg IP", "design": "species or system mice", "conditions": "female, CD-1, mouse", "protocol": "22E. 21 female CD-1 mice (6 wks) were administered 10 mg/kg L129 IP, 0.2 ml/mouse formulated as 5% DMSO, 10% Cremophor EL, and 85% D5W. Plasma was processed from whole blood by centrifugation of the ACD treated blood for 10′ at 10,000 rpm in a standard centrifuge. Brains were weighed and snap frozen in liquid nitrogen. Brain homogenates were prepared by mincing the brain tissue and homogenizing in a 3-fold volume of PBS (total volume of homogenate in mL=4× weight in g.) 100 microliters plasma or brain homogenate was mixed with 200 microliters of acetonitrile containing formic acid and an internal standard (final concentration of formic acid=0.1%, IS=25 ng/mL). The samples were vortexed 15 sec, incubated at room temp for 10′ and spun 2×13,200 rpm in a standard microcentrifuge. The supernatant was then analyzed by LC/MS/MS. Buffer A: Water+0.1% formic acid; Buffer B: MeOH+0.1% formic acid; flow rate 1.5 ml/min; column Agilent C18 XDB column, 5 micron packing 50×4.6 mm size; 0-1.5 min 3% B, 1.5-2.5 min gradient to 100% B; 2.5-3.5 min 100% B, 3.5-3.6 min gradient to 3% B; 3.6-4.5 min 3% B; IS N-benzylbenzamide (transition 212.1 to 91.1); Compound transition 474.2 to 336.3. These methods were used data obtained in the FIGS. 22B and 22E."}, "[3]": {"tested_on": "cancer cell lines (HeLa, DAOY, MCF7, 435 and HCC38 cells)", "test": "CellTiter-Glo cell viability in cancer cell lines", "assay_type": "cell-based, human", "conditions": "significant proportion of cell lines tested, excluding DAOY and MEF", "protocol": "(§1) The activity of compound 12M11 was tested against a variety of cancer cell lines (see FIG. 2A), including those are routinely used in the literature such as HeLa, DAOY, MCF7, 435 and HCC38 cells. […] Just as for MEF cells, without wishing to be bound by any theory, it is believed that the resistance of DAOY cells to the OxyPhos inhibitor 12M11 can be attributed to their higher ATP levels per cell (FIG. 13B) combined with lower intrinsic OxyPhos activity as assessed by TMRE staining (FIG. 13C)."}, "[4]": {"tested_on": "DAOY (medulloblastoma) cells", "test": "CellTiter-Glo cell viability in DAOY cells", "assay_type": "cell-based", "protocol": "as §1"}, "[5]": {"tested_on": "ATF4", "test": "ATF4 western blot in Mut6 cells", "assay_type": "cell-based, mouse", "protocol": "Mut6 tumor cells and MEFs were treated by DMSO or 1 μM 12M11 for the indicated times. Cell lysate was prepared by RIPA buffer with phosphatase inhibitor (Thermo) and protease inhibitor (Roche). Antibodies are purchased from Santa Cruz (ATF4), Cell Signaling (pS6, S6, AMPK, and pAMPK), and Millipore (Gapdh)."}, "[6]": {"tested_on": "Mut6", "test": "Glucose and lactate in culture media of Mut6 cells", "assay_type": "cell-based, mouse", "conditions": "Mut6, 7 hrs incubation", "protocol": "Mut6 cells were incubated with 12M11 for 7 hrs, and the collected culture media was measured for glucose, lactate, glutamine, and glutamate (Birsoy, et al., 2014; Lunt and Vander Heiden, 2011). […] Oxygen consumption and extracellular acidification using a XF24 Seahorse analyzer was used to measure cellular oxygen consumption rate (OCR) and extracellular acidification rate (ECAR) (FIG. 8)."}, "[7]": {"tested_on": "Mut6", "test": "Change in ATP levels in Mut6 cells", "assay_type": "cell-based, mouse", "conditions": "Mut6, 2-6 hr", "protocol": "Mut6 tumor cells or MEFs were plated into 96-well plates. One day later, Oligomyin (2 μM), Rotenone (200 nM), or 12M11 (1 μM) were added into each well and then ATP levels were measured by Cell-Titer Glo (Promega) after 2 hr, 4 hr, or 6 hr incubation. Each data is mean of six replicates with ± standard deviation."}, "[8]": {"tested_on": "oxidative phosphorylation complexes I-V", "test": "Avidin agarose pull-down of Biotin-12M11 interacting proteins from Mut6 cells", "assay_type": "binding, mouse", "conditions": "Mut6 cell lysates", "protocol": "To understand the unique selectivity of 12M11 to affect the viability of Mut6 cells, the precise molecular target(s) of 12M11 were determined. A 12M11 biotinylated variant (see Cpd 1.11, FIG. 16C) was generated to attempt to directly pull down interacting proteins. […] Mut6 cells were treated with 12M11, Biot-12M11, or pre-incubated with 12M11 followed by addition of Biot-12M11 (see FIG. 17 for a general schematic protocol). As indicated in the silver stain of a denaturing gel (FIG. 18A) with the pull down reactions, several bands that appear in the Biot-12M11 tract (Lane 2) are substantially diluted or absent in Lane 3 where the cells were pre-incubated with excess 12M11. […] The results from Mass-Spec analysis were as follows: 1) Lysate from Mut6 cells incubated with 12M11 alone yielded no proteins; 2) Lysate from Mut6 cells incubated with Biot-12M11 yielded 8 proteins (Atp5a1, Acaca, Hspa9, Hsp60, Decr1, Sdha, Pcca, and Atp5o; FIG. 19B). Two of the proteins, Acac and Pcca, were discounted as known to nonspecifically bind Biotin (Tong, 2005; Diacovich, et al., 2004; Kalousek, et al., 1980). The remaining 6 proteins all localize to the mitochondrion and 3 of the pulled down proteins are components of the oxidative phosphorylation complexes. […]"}}}
{"smiles": "CCc1n(CC(=O)O[C@@H]2C[C@H](C)CC[C@H]2C(C)C)c2ccccc2[n+]1C.[Cl-]", "note": "[Compound 12M11]", "values": [{"measurement": "half-life at 2 μM", "setting": "[1]", "result": 4, "unit": "min"}, {"measurement": "Cmax", "setting": "[2]", "result": 2.7, "unit": "ng/mL"}, {"measurement": "EC50", "setting": "[3]", "result": "mid nanomolar to low micromolar range"}, {"measurement": "sensitivity of DAOY cells", "setting": "[4]", "result": "resistance"}, {"measurement": "ATF4 protein level", "setting": "[5]", "result": "activation"}, {"measurement": "lactate secretion", "setting": "[6]", "result": "increased"}, {"measurement": "uptake of glucose", "setting": "[6]", "result": "increased"}, {"measurement": "ATP levels (% change from basal)", "setting": "[7]", "result": "decrease significantly"}, {"measurement": "association with OxyPhos complex proteins (pull-down)", "setting": "[8]", "result": "excludes"}]}
